≈ marks a conversion by molar mass, not a printed value.
Experiments:
Klebsiella pneumoniae [1] = assay: Bactericidal activity against Klebsiella pneumoniae ATCC BAA-1705 assessed as reduction in bacterial growth in the presence of avibactam; format: functional
Enterobacter cloacae [2] = assay: Ratio of MBC to MIC for Enterobacter cloacae 17-10 assessed as reduction in bacterial growth; format: functional
Escherichia coli [3] = assay: Antibacterial activity against ESBLs positive Carbapenem-sensitive Escherichia coli 17-12 assessed as reduction in bacterial growth in the presence of Avibactam; format: functional
Enterobacter cloacae [4] = assay: Bactericidal activity against Enterobacter cloacae 17-9 assessed as reduction in bacterial growth in the presence of avibactam; format: functional
Klebsiella aerogenes [5] = assay: Ratio of MBC to MIC for Enterobacter aerogenes 17-3 assessed as reduction in bacterial growth; format: functional
Klebsiella aerogenes [6] = assay: Ratio of MBC to MIC for Enterobacter aerogenes 17-1 assessed as reduction in bacterial growth in the presence of Avibactam; format: functional
Klebsiella pneumoniae [7] = assay: Antibacterial activity against Carbapenem- resistant Klebsiella pneumoniae KR 15-5 assessed as reduction in bacterial growth
Klebsiella pneumoniae [8] = assay: Antibacterial activity against ESBLs positive Carbapenem-sensitive Klebsiella pneumoniae 17-8 assessed as reduction in bacterial growth in the presence of Avibactam; format: functional
Enterobacter cloacae [9] = assay: Ratio of MBC to MIC for Enterobacter cloacae 17-10 assessed as reduction in bacterial growth in the presence of Avibactam; format: functional
Escherichia coli [10] = assay: Antibacterial activity against ESBLs positive Carbapenem-sensitive Escherichia coli 17-21 assessed as reduction in bacterial growth in the presence of Avibactam; format: functional
Klebsiella pneumoniae [11] = assay: Antibacterial activity against Carbapenem- resistant Klebsiella pneumoniae KR 15-9 assessed as reduction in bacterial growth in the presence of Avibactam; format: functional
Escherichia coli [12] = assay: Antibacterial activity against ESBLs negative Carbapenem--sensitive Escherichia coli 17-20 assessed as reduction in bacterial growth
Pseudomonas aeruginosa [13] = assay: Bactericidal activity against Carbapenem- resistant Pseudomonas aeruginosa 17-1 assessed as reduction in bacterial growth; format: functional
Klebsiella pneumoniae [14] = assay: Ratio of MBC to MIC for ESBLs negative Carbapenem-sensitive Klebsiella pneumoniae 17-16 assessed as reduction in bacterial growth; format: functional
Klebsiella pneumoniae [15] = assay: Antibacterial activity against ESBLs positive Carbapenem-sensitive Klebsiella pneumoniae 17-12 assessed as reduction in bacterial growth in the presence of Avibactam; format: functional
Enterococcus faecalis = assay: Antibacterial activity against Enterococcus faecalis ATCC 51299 assessed as reduction in bacterial growth; format: functional
Klebsiella aerogenes [16] = assay: Antibacterial activity against Enterobacter aerogenes 15-3 assessed as reduction in bacterial growth
Escherichia coli [17] = assay: Antibacterial activity against ESBLs positive Carbapenem-sensitive Escherichia coli 17-6 assessed as reduction in bacterial growth in the presence of Avibactam; format: functional
Pseudomonas aeruginosa [18] = assay: Ratio of MBC to MIC for Pseudomonas aeruginosa ATCC 27853 assessed as reduction in bacterial growth in the presence of Avibactam; format: functional
Klebsiella aerogenes [19] = assay: Ratio of MBC to MIC for Enterobacter aerogenes 15-4 assessed as reduction in bacterial growth in the presence of Avibactam; format: functional
Acinetobacter baumannii [20] = assay: Ratio of MBC to MIC for Carbapenem- resistant Acinetobacter baumannii 17-11 assessed as reduction in bacterial growth in the presence of Avibactam; format: functional
Enterobacter cloacae [21] = assay: Ratio of MBC to MIC for Enterobacter cloacae 17-8 assessed as reduction in bacterial growth in the presence of Avibactam; format: functional
Escherichia coli [22] = assay: Bactericidal activity against Escherichia coli ATCC 25922 assessed as reduction in bacterial growth; format: functional
Escherichia coli [23] = assay: Ratio of MBC to MIC for ESBLs positive carbapenem-negative Escherichia coli 17-18 assessed as reduction in bacterial growth in the presence of Avibactam; format: functional
Klebsiella aerogenes [24] = assay: Ratio of MBC to MIC for Enterobacter aerogenes 17-1 assessed as reduction in bacterial growth; format: functional
Enterobacter cloacae [25] = assay: Ratio of MBC to MIC for Enterobacter cloacae 17-3 assessed as reduction in bacterial growth; format: functional
Pseudomonas aeruginosa [26] = assay: Bactericidal activity against Carbapenem- resistant Pseudomonas aeruginosa 17-8 assessed as reduction in bacterial growth; format: functional
Klebsiella pneumoniae [27] = assay: Antibacterial activity against ESBLs negative Carbapenem-sensitive Klebsiella pneumoniae 15-2 assessed as reduction in bacterial growth in the presence of Avibactam; format: functional
Klebsiella pneumoniae [28] = assay: Antibacterial activity against Carbapenem- resistant Klebsiella pneumoniae KR 15-4 assessed as reduction in bacterial growth
Acinetobacter baumannii [29] = assay: Antibacterial activity against Carbapenem- resistant Acinetobacter baumannii 17-2 assessed as reduction in bacterial growth in the presence of Avibactam; format: functional
Klebsiella aerogenes [30] = assay: Antibacterial activity against Enterobacter aerogenes 17-3 assessed as reduction in bacterial growth in the presence of Avibactam; format: functional
Escherichia coli [31] = assay: Ratio of MBC to MIC for ESBLs positive Carbapenem-sensitive Escherichia coli 17-3 assessed as reduction in bacterial growth; format: functional
Escherichia coli [32] = assay: Antibacterial activity against Escherichia coli ATCC 35218 assessed as reduction in bacterial growth; format: functional
Klebsiella pneumoniae [33] = assay: Antibacterial activity against Carbapenem- resistant Klebsiella pneumoniae KR 15-12 assessed as reduction in bacterial growth in the presence of Avibactam; format: functional
Enterobacter cloacae [34] = assay: Antibacterial activity against Enterobacter cloacae 17-8 assessed as reduction in bacterial growth in the presence of Avibactam; format: functional
Acinetobacter baumannii [35] = assay: Bactericidal activity against Carbapenem- resistant Acinetobacter baumannii 17-6 assessed as reduction in bacterial growth; format: functional
Escherichia coli [36] = assay: Antibacterial activity against ESBLs positive Carbapenem-sensitive Escherichia coli 17-10 assessed as reduction in bacterial growth
Escherichia coli [37] = assay: Ratio of MBC to MIC for ESBLs negative Carbapenem-sensitive Escherichia coli 17-7 assessed as reduction in bacterial growth; format: functional
Klebsiella pneumoniae [38] = assay: Antibacterial activity against ESBLs positive Carbapenem-sensitive Klebsiella pneumoniae 17-11 assessed as reduction in bacterial growth in the presence of Avibactam; format: functional
Klebsiella pneumoniae [39] = assay: Antibacterial activity against ESBLs negative Carbapenem-sensitive Klebsiella pneumoniae 17-16 assessed as reduction in bacterial growth in the presence of Avibactam; format: functional
Pseudomonas aeruginosa [40] = assay: Bactericidal activity against Carbapenem- resistant Pseudomonas aeruginosa 17-5 assessed as reduction in bacterial growth in the presence of avibactam; format: functional
Escherichia coli [41] = assay: Ratio of MBC to MIC for ESBLs positive carbapenem-negative Escherichia coli 17-10 assessed as reduction in bacterial growth in the presence of Avibactam; format: functional
Klebsiella pneumoniae [42] = assay: Bactericidal activity against ESBLs positive Carbapenem-sensitive Klebsiella pneumoniae 17-6 assessed as reduction in bacterial growth in the presence of avibactam; format: functional
Enterobacter cloacae [43] = assay: Ratio of MBC to MIC for Enterobacter cloacae 17-8 assessed as reduction in bacterial growth; format: functional
Acinetobacter baumannii [44] = assay: Antibacterial activity against Multidrug resistant Acinetobacter baumannii AR 15-2 assessed as reduction in bacterial growth in the presence of Avibactam; format: functional
Pseudomonas aeruginosa [45] = assay: Bactericidal activity against Carbapenem- resistant Pseudomonas aeruginosa 17-8 assessed as reduction in bacterial growth in the presence of avibactam; format: functional

Compound `Nc1nc(/C(=N/OCc2cc(=O)c(O)cn2O)C(=O)N[C@@H]2C(=O)N3C(C(=O)O)=CCS[C@H]23)cs1` has an MBC (Klebsiella pneumoniae [1]) of 2 µg/mL, a Ratio (Enterobacter cloacae [2]) of over 8 and an MIC (Escherichia coli [3]) of 0.25 µg/mL. The MBC (Enterobacter cloacae [4]) was 2 µg/mL, the Ratio (Klebsiella aerogenes [5]) was 1 and the Ratio (Klebsiella aerogenes [6]) was 2. It also gave an MIC (Klebsiella pneumoniae [7]) of over 64 µg/mL, an MIC (Klebsiella pneumoniae [8]) of 0.5 µg/mL and a Ratio (Enterobacter cloacae [9]) of 2. For the same compound, the MIC (Escherichia coli [10]) was 0.5 µg/mL, the MIC (Klebsiella pneumoniae [11]) was 2 µg/mL and the MIC (Escherichia coli [12]) was over 2 µg/mL. It also gave an MBC (Pseudomonas aeruginosa [13]) of 64 µg/mL (≈ 126 µM), a Ratio (Klebsiella pneumoniae [14]) of 1 and an MIC (Klebsiella pneumoniae [15]) of 0.125 µg/mL. It also gave an MIC (Enterococcus faecalis) of over 64 µg/mL, an MIC (Klebsiella aerogenes [16]) of over 64 µg/mL and an MIC (Escherichia coli [17]) of 0.5 µg/mL. The Ratio (Pseudomonas aeruginosa [18]) was 4, the Ratio (Klebsiella aerogenes [19]) was 2 and the Ratio (Acinetobacter baumannii [20]) was over 8. It also gave a Ratio (Enterobacter cloacae [21]) of 1, an MBC (Escherichia coli [22]) of over 8 µg/mL and a Ratio (Escherichia coli [23]) of 2. It also gave a Ratio (Klebsiella aerogenes [24]) of 2, a Ratio (Enterobacter cloacae [25]) of 1 and an MBC (Pseudomonas aeruginosa [26]) of 64 µg/mL (≈ 126 µM). The MIC (Klebsiella pneumoniae [27]) was at most 0.03 µg/mL, the MIC (Klebsiella pneumoniae [28]) was over 64 µg/mL and the MIC (Acinetobacter baumannii [29]) was 16 µg/mL. It also gave an MIC (Klebsiella aerogenes [30]) of 0.5 µg/mL, a Ratio (Escherichia coli [31]) of 1 and an MIC (Escherichia coli [32]) of 0.5 µg/mL (≈ 0.983 µM). The MIC (Klebsiella pneumoniae [33]) was 4 µg/mL, the MIC (Enterobacter cloacae [34]) was 2 µg/mL and the MBC (Acinetobacter baumannii [35]) was over 64 µg/mL. The MIC (Escherichia coli [36]) was 4 µg/mL (≈ 7.87 µM), the Ratio (Escherichia coli [37]) was 2 and the MIC (Klebsiella pneumoniae [38]) was 4 µg/mL. The MIC (Klebsiella pneumoniae [39]) was 0.06 µg/mL, the MBC (Pseudomonas aeruginosa [40]) was 32 µg/mL and the Ratio (Escherichia coli [41]) was 8. It also gave an MBC (Klebsiella pneumoniae [42]) of 0.5 µg/mL, a Ratio (Enterobacter cloacae [43]) of 1 and an MIC (Acinetobacter baumannii [44]) of 16 µg/mL. It also gave an MBC (Pseudomonas aeruginosa [45]) of 32 µg/mL.

Compound `CC(C)(O/N=C(\C(=O)N[C@@H]1C(=O)N2C(C(=O)[O-])=C(C[n+]3ccccc3)CS[C@H]12)c1csc(N)n1)C(=O)O` [CEFTAZIDIME] has an MBC (Klebsiella pneumoniae [1]) of 8 µg/mL, an MBC (Enterobacter cloacae [4]) of over 2 µg/mL and an MIC (Klebsiella pneumoniae [7]) of over 64 µg/mL. It also gave an MIC (Klebsiella pneumoniae [8]) of 2 µg/mL, an MIC (Klebsiella pneumoniae [11]) of 2 µg/mL and an MIC (Escherichia coli [12]) of over 2 µg/mL. The MIC (Klebsiella pneumoniae [15]) was 1 µg/mL, the MIC (Enterococcus faecalis) was over 64 µg/mL and the MIC (Klebsiella aerogenes [16]) was over 64 µg/mL. It also gave an MIC (Escherichia coli [17]) of 0.5 µg/mL, an MBC (Escherichia coli [22]) of 0.5 µg/mL (≈ 0.915 µM) and an MBC (Pseudomonas aeruginosa [26]) of 64 µg/mL (≈ 117 µM). The MIC (Klebsiella pneumoniae [28]) was over 64 µg/mL, the MIC (Acinetobacter baumannii [29]) was 8 µg/mL and the MIC (Escherichia coli [32]) was 0.06 µg/mL (≈ 0.11 µM). The MIC (Klebsiella pneumoniae [33]) was 4 µg/mL, the MIC (Enterobacter cloacae [34]) was 0.125 µg/mL and the MBC (Acinetobacter baumannii [35]) was over 64 µg/mL. The MBC (Pseudomonas aeruginosa [40]) was over 16 µg/mL, the MBC (Klebsiella pneumoniae [42]) was over 8 µg/mL and the MIC (Acinetobacter baumannii [44]) was 8 µg/mL. For the same compound, the MBC (Pseudomonas aeruginosa [45]) was 16 µg/mL.
